{"source": "paper PMC6145916", "about": "“Interaction of mitochondrial fission factor with dynamin related protein 1 governs physiological mitochondrial function in vivo” (Scientific Reports, 2018)", "key": {"Mfn2": {"tested_on": "Mfn2", "assay": "Binding of recombinant Mfn2 to surface-conjugated P259 (AGILE-R100 graphene sensor)", "set-up": "species or system human", "conditions": "P259 surface-conjugated (50 nM), 100 nM protein, RIPA buffer pH 8.0; n = 3, with 3 replicates", "description": "Figure 1 Rational peptide design identifies a novel inhibitor of the Mff-Drp1 protein-protein interaction. (a) A scheme of the rationale behind the inhibitor design. […] Surface and ribbon diagrams of Drp1 structure (PDB, 4BEJ) with the GTPase, bundle signaling element (BSE), and stalk domains highlighted. (d) A heatmap representing sequence conservation of human proteins that contain a region similar to P259. Sequence conservation corresponds to the number of residues similar/identical to P259 from each sequence. […] The obtained graph is of the mean standardized response and ± s.e. as a function of time for n = 3 individual experiments, with 3 technical replicates each. […] Represented Western blot is cropped from a full blot shown in the Expanded Western Blots section of the Supplementary Information. (h) Relative GTPase activity of recombinant Drp1 in the presence of 1 µM of peptide (n = 3–5). Data are mean ± s.e. from 3–5 independent experiments per condition.\nDrp1 and Mff. Utilizing BioPython, a pairwise alignment was performed between each ortholog […]\nbrief, an automated microwave peptide synthesizer (Liberty, CEM Corporation) was used to perform solid phase peptide synthesis by a series of coupling of fluorenylmethoxycarbonyl (Fmoc)-protected amino acids and hydroxybenz otriazol (HOBt) […] reaction steps. […]"}, "wild-type MEFs": {"tested_on": "wild-type MEFs", "assay": "Mitochondrial ROS (MitoSox), WT MEFs", "type": "cell-based, mouse", "conditions": "4 µM P259 daily for three days, vs no peptide; 3 independent experiments, three technical replicates; *** p <0.001", "description": "Data are of 3 independent experiments with the whiskers calculated by the Turkey method. e. […]\nproduction in an Mff -dependent manner. Mitochondrial reactive oxygen species production […]\ntreatment in each cell line. […]\ndetermined by an unpaired, two -tailed t test). g. […]\ncontrol (no peptide treatment). Data are mean ± s.e. from 3 independent experiments.\nMitochondrial reactive oxygen species determination […]\nand 1% penicillin-streptomycin solution (Corning, NY, USA). […]\nand without phenol red. […] After incubation\nHEPES, and without phenol red. […]\nepifluorescence microscope with a 10X objective (Keyence). The Cy5 filter (Keyence) was used to autofocus on the mitochondria plane. […]\ncalculated as the average MitoSox signal per cell. […]"}}, "note": "Where no end group is shown, it is not given here."}
{"substance": "YGRKKRRQRRRGSGIIQLPEIVVV-NH2 (C-terminus assumed) [P259]", "values": [{"measurement": "binding to Mfn2", "setting": "Mfn2", "value": "only negligible binding"}, {"measurement": "mitochondrial ROS production, WT MEFs", "setting": "wild-type MEFs", "value": "increases mitochondrial ROS"}]}
